Test results taken from patent US10034931B2, “Use of EGFR pathway inhibitors to increase immune responses to antigens” (Emory University, priority 2013, dated 2018).

Columns and labels:
[1] = system: vaccine-specific IgM-secreting cells and IgG-secreting cells; assay: Vaccine-specific antibody secreting cells (ELISPOT) in skin draining lymph nodes and spleen; assay type: in vivo, BALB/c mice
[2] = system: A/California/07/2009 virus; assay: Neutralizing antibody titers by microneutralization assay in sera of vaccinated mice; assay type: in vivo, BALB/c mice; conditions: by week 8; vs vehicle-vaccinated and vaccine alone
[3] = system: contact hypersensitivity; conditions: topical application; associated with increases in several chemoattractant chemokines; cited from earlier work
[4] = system: influenza-specific binding IgG antibodies; assay: Virus-specific (total vaccine-reactive) antibody levels by ELISA; assay type: in vivo, BALB/c mice; conditions: between the three groups (EGFRI, vehicle, vaccine only)
[5] = system: CCL2; assay: Steady state mRNA levels of immune genes in skin after topical application; assay type: in vivo, Balb/c mice; conditions: topical application to dorsal skin, six hour time point
Excerpt: The topical application of the irreversible EGFR inhibitor PD168393 can enhance the elicitation phase of contact hypersensitivity in a manner that is associated with increases in several chemoattractant chemokines. During EGFRI therapy there are changes in immune gene expression even in clinically normal (non-inflamed) skin). To determine how EGFR inhibition alters immune gene expression, PD168393 or vehicle (10% DMSO in ethanol) was applied to the backs of Balb/c mice (5 mice per group) and steady state mRNA levels of several genes were measured. A six hour time point was selected for these experiments. […] This increase was observed independent of the reference housekeeping gene used in the analysis. In contrast, steady state levels of the housekeeping genes and several other genes analyzed were unchanged by topical PD168393 at this time point. These studies indicate that a single application of an EGFRI to mouse skin can alter the expression of chemokines that are known to influence immune cell trafficking into the skin.

[6] = system: IFN-γ-producing and IL-4-producing cells; assay: IL-4 and IFN-γ secreting cells (ELISPOT) in skin-draining lymph nodes and spleens; assay type: in vivo, BALB/c mice
[7] = system: A/California/07/09 (H1N1) influenza virus; assay: Hemagglutination inhibition (HAI) titers in sera of vaccinated mice; assay type: in vivo, BALB/c mice

C=CC(=O)Nc1ccc2ncnc(Nc3cccc(Br)c3)c2c1 [PD168393, N-[4-(3-bromoanilino)quinazolin-6-yl]prop-2-enamide]
numbers of IgG-secreting cells ([1]; skin draining lymph nodes, 1 and 2 weeks post vaccination, vs vehicle-vaccinated mice): significantly higher
number of IgG secreting cells ([1]; skin draining lymph nodes, day 14, vs vehicle-vaccinated mice): twice as high
number of IgM secreting cells ([1]; skin draining lymph nodes, seven days post vaccination, vs vehicle-vaccinated mice): double
number of cells producing influenza-specific antibodies ([1]; skin-draining lymph nodes, topical treatment prior to vaccination): increase
cellular responses in the spleen (antibody secreting cells) ([1]; spleen, EGFRI- vs vehicle-vaccinated mice): without any notable differences
NT titers [2]: increased relative to both control groups
elicitation phase of contact hypersensitivity [3]: enhance
total vaccine-reactive antibodies [4]: no differences
steady state levels of the housekeeping genes and several other genes [5]: unchanged
steady state mRNA levels of the chemokine CCL2 ([5]; vs vehicle (10% DMSO in ethanol)): statistically significant increase
numbers of activated influenza-specific immune cells as defined by IFN-γ and IL-4 secretion ([6]; one week post immunization, vs vehicle-vaccinated mice): higher numbers
numbers of IL-4 secreting cells ([6]; skin-draining lymph nodes, one week post immunization, vs vehicle-vaccinated mice): 3 fold
numbers of IFN-γ secreting cells ([6]; skin-draining lymph nodes, one week post-vaccination, vs vaccine-vehicle cohort): 4 fold
levels of IL-4 secreting lymphocytes ([6]; skin-draining lymph nodes, two weeks post immunization, vs vehicle): significantly higher
difference in numbers of IFN-γ secreting cells ([6]; skin-draining lymph nodes, two weeks post vaccination, vs vaccine-vehicle cohort): absent
numbers of IL-4 and IFN-γ secreting cells in spleens ([6]; spleens, EGFRI- vs vehicle-vaccinated mice): no differences
HAI titers, difference to vaccine alone or vehicle-vaccine group ([7]; as early as week 4): two-fold higher
functionally relevant humoral immune responses ([7]; single application at site just prior to intradermal vaccination, vs vehicle (10% DMSO in ethanol)-treated mice): significantly higher
HAI titers ([7]; single topical application at site just prior to intradermal vaccination, vs vehicle-vaccine and vaccine only): significantly higher
